These results are taken from publication PMC12711161, “Design, Synthesis, and Biological Characterization of Macromolecular Ester Prodrugs of a Selective Cyclooxygenase‐2 Inhibitor” (Chemmedchem, 2025).

In test [1] the target is T1, COX‐1 (Mus musculus, UniProt P22437).
T1 construct: endogenous in cells; host or cells: J774 murine monocyte/macrophage cell line
T1 sequence (P22437 27-602): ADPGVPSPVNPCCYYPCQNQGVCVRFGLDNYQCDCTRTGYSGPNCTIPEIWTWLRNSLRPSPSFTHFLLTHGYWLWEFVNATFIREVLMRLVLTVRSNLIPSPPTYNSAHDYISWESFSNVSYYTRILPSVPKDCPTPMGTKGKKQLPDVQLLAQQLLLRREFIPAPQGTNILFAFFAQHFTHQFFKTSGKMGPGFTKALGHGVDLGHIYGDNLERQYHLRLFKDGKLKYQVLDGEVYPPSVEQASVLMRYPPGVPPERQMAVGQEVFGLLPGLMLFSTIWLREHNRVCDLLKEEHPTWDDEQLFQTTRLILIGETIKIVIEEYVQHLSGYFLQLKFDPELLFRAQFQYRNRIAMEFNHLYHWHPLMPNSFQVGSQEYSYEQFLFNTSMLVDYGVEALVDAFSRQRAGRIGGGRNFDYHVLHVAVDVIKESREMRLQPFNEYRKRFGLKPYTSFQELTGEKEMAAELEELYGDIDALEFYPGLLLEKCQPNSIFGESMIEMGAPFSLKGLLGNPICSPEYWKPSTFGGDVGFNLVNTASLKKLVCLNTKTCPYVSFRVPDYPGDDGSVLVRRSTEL
Conditions: J774 murine macrophage assay, cited from earlier work.

For test [2], the target named is T2, COX‐2 (Mus musculus, UniProt Q05769).
T2 construct: endogenous in cells; host or cells: J774 murine monocyte/macrophage cell line, LPS-stimulated
T2 sequence (Q05769 18-604): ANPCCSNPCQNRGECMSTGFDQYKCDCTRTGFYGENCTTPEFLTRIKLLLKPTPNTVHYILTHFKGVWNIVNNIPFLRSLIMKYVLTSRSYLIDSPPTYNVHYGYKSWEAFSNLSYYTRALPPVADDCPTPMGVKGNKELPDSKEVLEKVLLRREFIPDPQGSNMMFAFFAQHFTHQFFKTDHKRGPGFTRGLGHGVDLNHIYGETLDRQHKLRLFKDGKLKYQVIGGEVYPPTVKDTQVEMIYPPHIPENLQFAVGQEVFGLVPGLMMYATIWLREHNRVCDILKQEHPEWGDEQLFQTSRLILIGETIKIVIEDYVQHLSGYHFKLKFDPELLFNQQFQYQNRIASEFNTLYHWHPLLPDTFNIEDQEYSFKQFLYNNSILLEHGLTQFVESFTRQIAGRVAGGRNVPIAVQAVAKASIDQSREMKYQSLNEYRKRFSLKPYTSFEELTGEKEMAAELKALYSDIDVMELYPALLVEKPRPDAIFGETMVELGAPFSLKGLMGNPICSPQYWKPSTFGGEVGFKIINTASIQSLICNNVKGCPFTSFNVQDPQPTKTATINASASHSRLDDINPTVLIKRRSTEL
Description: COX‐2 inhibition of PGE2 production, LPS-stimulated J774 murine macrophage assay. In kind it is cell-based. Conditions: for IC50: J774 cells, LPS 10 μg/mL 24 h, PGE2 by EIA, mean of three experiments; for COX‐1/COX‐2 [SI]: selectivity index IC50(COX‐1)/IC50(COX‐2). As to the method:
This required that hydrolysis was mandatory to obtain the possible release of bioactive compounds from the macromolecular ester prodrugs. […] All these considerations led us to consider the importance of the possible hydrolysis process, which could lead to release the bioactive compounds from the macromolecular ester prodrug 13a.
(§1) The cell line was grown in DMEM supplemented with 2 mM glutamine, 25 mM HEPES, 100 units mL^–1 penicillin, 100 μg mL^–1 streptomycin, 10% fetal bovine serum (FBS), and 1.2% sodium pyruvate. Cells were plated in 24‐well culture plates at a density of 2.5 × 10^5 cells mL^–1 and allowed to adhere at 37 °C in 5% CO2 for 2 h. Immediately before the experiments, the culture medium was replaced with fresh medium, and cells were stimulated as previously described.^[ [64] ^] The evaluation of COX‐1 inhibitory activity was achieved by pretreating cells with test compounds (10 μM) for 15 min and then incubating them at 37 °C for 30 min with 15 μM arachidonic acid to activate the constitutive COX. At the end of the incubation, the supernatants were collected to measure PGE2 levels by an enzyme immuno‐assay (EIA). To evaluate COX‐2 activity, cells were stimulated for 24 h with Escherichia coli lipopolysaccharide (LPS, 10 μg mL^–1) to induce COX‐2, in the absence or presence of test compounds (0.001–10 μM). The supernatants were collected for the measurement of PGE2 by means of EIA. Celecoxib was utilized as a reference compound for the selectivity index. Triplicate wells were used for the various treatment conditions in the cell culture assay throughout the experiments. Results are expressed as the mean of three experiments of the % inhibition of PGE2 production by test compounds with respect to control samples. Data fit was obtained using the sigmoidal dose–response equation (variable slope) (GraphPad software). The IC50 values were calculated by the GraphPad Instat program (GraphPad software).

Test [3] addresses T1, COX‐1. Description: COX‐1 inhibition of PGE2 production, arachidonic acid-stimulated J774 murine macrophage assay. It counts as cell-based. The following applies: J774 cells, 15 μM arachidonic acid, PGE2 by EIA, mean of three experiments. As to the method:
All tested compounds didn’t inhibit the production of PGE2 via COX‐1 in AA‐stimulated J774 macrophages.
as §1

Test [4] has as its target T2, COX‐2. Conditions: ref [24], cited from earlier work.

Read-outs that look alike come from different tables or passages of the source.

What is called IC50 is the point on the concentration scale where inhibition reaches its midpoint. On to `Cc1c(CCOCCO)cc(-c2ccc(S(C)(=O)=O)cc2)n1-c1ccc(F)cc1` [Compound 7b], for which, at COX‐1 [1] (ref [27]), the IC50 is over 10000 nM.
With `COc1cc(/C=C/C(=O)O)ccc1OCc1cn(CCOCCOCCOCCOCCOCCOCCc2cc(-c3ccc(S(C)(=O)=O)cc3)n(-c3ccc(F)cc3)c2C)nn1` [Compound 12b, (E)‐3‐(4‐((1‐(20‐(1‐(4‐Fluorophenyl)‐2‐methyl‐5‐(4‐(methylsulfonyl)phenyl)‐1H‐pyrrol‐3‐yl)‐3,6,9,12,15,18‐hexaoxaicosyl)‐1H‐1,2,3‐triazol‐4‐yl)methoxy)‐3‐methoxyphenyl)acrylic acid], the IC50 against COX‐2 [2] and on COX‐1 [3] was over 10000 nM throughout. The “inhibition of PGE2 production via COX‐2 (in words)” value against COX‐2 [2] (LPS‐stimulated macrophages) was “completely devoid of COX‐2 inhibitory activity”.
For `COc1cc(/C=C/C(=O)O)ccc1OCc1cn(CCOCCOCCOCCOCCOCCOCCC(=O)OCCOCCc2cc(-c3ccc(S(C)(=O)=O)cc3)n(-c3ccc(F)cc3)c2C)nn1` [Compound 13b, (E)‐3‐(4‐((1‐(27‐(1‐(4‐Fluorophenyl)‐2‐methyl‐5‐(4‐(methylsulfonyl)phenyl)‐1H‐pyrrol‐3‐yl)‐21‐oxo‐3,6,9,12,15,18,22,25‐octaoxaheptacosyl)‐1H‐1,2,3‐triazol‐4‐yl)methoxy)‐3‐methoxyphenyl)acrylic acid], at COX‐2 [2], the IC50 amounted to 50 nM and the “COX‐1/COX‐2 [SI]” value is over 200. The compound also yielded an IC50 against COX‐1 [3] of over 10000 nM.
As to `Cc1c(CCOCCOC(=O)CCOCCOCCOCCOCCOCCOCCN=[N+]=[N-])cc(-c2ccc(S(C)(=O)=O)cc2)n1-c1ccc(F)cc1` [Compound 14, 2‐(2‐(1‐(4‐Fluorophenyl)‐2‐methyl‐5‐(4‐(methylsulfonyl)phenyl)‐1H‐pyrrol‐3‐yl)ethoxy)ethyl 1‐azido‐3,6,9,12,15,18‐hexaoxahenicosan‐21‐oate], at COX‐2 [2], half-maximal inhibition (IC50) was put at 15 nM and the “COX‐1/COX‐2 [SI]” value was over 666.7. This compound returned an IC50 against COX‐1 [3] of over 10000 nM.
As for `Cc1c(CCOCCOCCOCCOCCOCCOCCN=[N+]=[N-])cc(-c2ccc(S(C)(=O)=O)cc2)n1-c1ccc(F)cc1` [Compound 19, 3‐(20‐Azido‐3,6,9,12,15,18‐hexaoxaicosyl)‐1‐(4‐fluorophenyl)‐2‐methyl‐5‐(4‐(methylsulfonyl)phenyl)‐1H‐pyrrole], the half-maximal inhibitory concentration (IC50) is 500 nM against COX‐2 [2] and over 10000 nM at COX‐1 [3]. The “COX‐1/COX‐2 [SI]” value on COX‐2 [2] is over 20.
Turning to `Cc1c(CCO)cc(-c2ccc(S(C)(=O)=O)cc2)n1-c1ccc(F)cc1` [Compound 21], the IC50 on COX‐1 [1] (ref [24]) was over 10000 nM; at COX‐2 [4] (J774 murine macrophage assay), 70 nM. The “COX‐1/COX‐2 [SI]” value on COX‐2 [4] (selectivity index IC50(COX‐1)/IC50(COX‐2)) is listed as over 142.8.
